Like-named read-outs stand apart in the source and are kept apart here.
Experiments:
human 5HT1A receptors = molecular target: T1, human 5HT1A receptors (Homo sapiens, UniProt P08908); test: h5-HT1A receptor radioligand binding ([3H]8OH-DPAT); conditions: for Ki: pKi reported on a scale of 1 through 5; for binding to 5-HT1A: in words
T1 construct: expressed in transfected cells; host or cells: Chinese hamster ovary cells (membranes)
T1 sequence (P08908 1-422): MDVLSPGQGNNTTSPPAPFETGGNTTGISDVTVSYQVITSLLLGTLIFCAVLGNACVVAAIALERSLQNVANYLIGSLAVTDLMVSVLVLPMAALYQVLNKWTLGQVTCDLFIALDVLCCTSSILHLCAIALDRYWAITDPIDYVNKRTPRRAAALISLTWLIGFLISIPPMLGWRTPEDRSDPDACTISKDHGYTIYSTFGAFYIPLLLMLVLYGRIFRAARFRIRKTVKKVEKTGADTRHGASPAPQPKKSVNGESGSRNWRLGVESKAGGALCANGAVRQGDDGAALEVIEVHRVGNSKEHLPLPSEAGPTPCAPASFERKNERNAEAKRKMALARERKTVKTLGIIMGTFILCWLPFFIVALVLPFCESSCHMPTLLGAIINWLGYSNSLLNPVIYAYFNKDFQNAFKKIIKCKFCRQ
Outline: (§1)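 Test compounds at varying concentrations displaced a single concentration of radioligand from tissues or membrane fractions expressing each receptor, incubated to equilibrium, then filtered. Specific binding was taken as total minus binding in the presence of a reference blocker, and the corrected concentration–response gave receptor binding.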

5-HT2A receptor = molecular target: T2, 5-HT2A receptor (Rattus norvegicus, UniProt P14842); test: cell-based
T2 construct: Eight strips of tissue (0.5 cm long) were cut. and were mounted in 10 ml organ baths; tissue Charles River Laboratories; host or cells: rat aorta strips, endothelium removed
T2 sequence (P14842 whole entry): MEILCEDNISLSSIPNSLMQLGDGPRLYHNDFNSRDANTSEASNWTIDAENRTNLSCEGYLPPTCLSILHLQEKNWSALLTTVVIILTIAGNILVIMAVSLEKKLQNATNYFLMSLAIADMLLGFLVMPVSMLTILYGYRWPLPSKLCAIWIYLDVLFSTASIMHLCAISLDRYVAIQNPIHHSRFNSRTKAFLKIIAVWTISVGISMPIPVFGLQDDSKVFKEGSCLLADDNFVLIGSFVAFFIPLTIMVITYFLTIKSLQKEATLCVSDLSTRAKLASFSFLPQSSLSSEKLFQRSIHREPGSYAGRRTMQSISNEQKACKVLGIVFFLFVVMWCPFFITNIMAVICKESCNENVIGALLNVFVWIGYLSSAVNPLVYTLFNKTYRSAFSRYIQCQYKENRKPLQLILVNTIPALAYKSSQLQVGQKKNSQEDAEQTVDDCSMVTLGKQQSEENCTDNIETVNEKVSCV
Outline: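 Agonist EC50 and antagonist pKB or pA2 values come from curves fitted by Parker–Waud and from EC50 concentration-ratios with versus without antagonist. Tissue: rat aorta strips, endothelium removed, 37° C Krebs pH 7.4 with 95% O2/5% CO2, 2 g tension; response as % of 5-HT maximum.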

human M3 receptors = molecular target: T3, human M3 receptors (Homo sapiens, UniProt P20309); test: hM3 receptor radioligand binding ([3H]NMS); conditions: for Ki: pKi reported on a scale of 1 through 5, read-out: M3 (pKi) (converted); for affinity to M3 receptors: in words
T3 construct: expressed in transfected cells; host or cells: Chinese hamster ovary cells (membranes)
T3 sequence (P20309 whole entry): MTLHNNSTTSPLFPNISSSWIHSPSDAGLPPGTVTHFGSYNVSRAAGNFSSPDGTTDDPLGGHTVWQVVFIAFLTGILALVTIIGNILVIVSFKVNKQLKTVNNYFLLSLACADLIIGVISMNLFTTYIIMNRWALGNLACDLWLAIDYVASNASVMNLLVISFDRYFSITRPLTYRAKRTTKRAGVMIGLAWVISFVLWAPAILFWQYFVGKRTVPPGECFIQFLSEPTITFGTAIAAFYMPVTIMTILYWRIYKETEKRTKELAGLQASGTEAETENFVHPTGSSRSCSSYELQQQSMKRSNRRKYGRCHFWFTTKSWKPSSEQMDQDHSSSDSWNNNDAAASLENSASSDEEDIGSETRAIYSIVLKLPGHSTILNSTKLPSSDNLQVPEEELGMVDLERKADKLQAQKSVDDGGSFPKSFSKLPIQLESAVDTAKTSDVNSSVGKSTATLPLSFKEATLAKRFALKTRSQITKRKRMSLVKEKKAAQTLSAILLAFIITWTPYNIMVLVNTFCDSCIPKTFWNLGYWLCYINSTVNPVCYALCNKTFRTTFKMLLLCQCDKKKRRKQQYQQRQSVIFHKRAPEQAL
Outline: as §1

[1] = molecular target: T4, human D2s dopamine receptors (Homo sapiens, UniProt P14416); test: hD2S receptor radioligand binding ([3H]spiperone); conditions: for Ki: pKi reported on a scale of 1 through 5
T4 construct: expressed in transfected cells; host or cells: Chinese hamster ovary cells (membranes)
T4 sequence (P14416 1-414 isoform P14416-2): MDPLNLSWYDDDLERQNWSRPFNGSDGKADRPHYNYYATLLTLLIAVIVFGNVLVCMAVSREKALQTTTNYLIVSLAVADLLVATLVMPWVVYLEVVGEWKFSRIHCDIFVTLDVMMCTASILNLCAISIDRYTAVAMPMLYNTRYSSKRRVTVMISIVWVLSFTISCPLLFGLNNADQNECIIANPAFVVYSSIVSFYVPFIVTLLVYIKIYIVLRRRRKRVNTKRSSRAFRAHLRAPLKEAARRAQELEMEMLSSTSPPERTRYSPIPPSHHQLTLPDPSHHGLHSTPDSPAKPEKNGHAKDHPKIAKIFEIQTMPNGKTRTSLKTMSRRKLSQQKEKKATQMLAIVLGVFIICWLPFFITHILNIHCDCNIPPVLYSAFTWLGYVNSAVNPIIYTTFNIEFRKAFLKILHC
Outline: as §1

human 5HT2C receptors = molecular target: T5, human 5HT2C receptors (Homo sapiens, UniProt P28335); test: h5-HT2C receptor radioligand binding ([3H]Mesulergine); conditions: for Ki: pKi reported on a scale of 1 through 5; for binding to 5-HT2c: in words
T5 construct: expressed in transfected cells; host or cells: human embryo kidney cells (membranes)
T5 sequence (P28335 33-458): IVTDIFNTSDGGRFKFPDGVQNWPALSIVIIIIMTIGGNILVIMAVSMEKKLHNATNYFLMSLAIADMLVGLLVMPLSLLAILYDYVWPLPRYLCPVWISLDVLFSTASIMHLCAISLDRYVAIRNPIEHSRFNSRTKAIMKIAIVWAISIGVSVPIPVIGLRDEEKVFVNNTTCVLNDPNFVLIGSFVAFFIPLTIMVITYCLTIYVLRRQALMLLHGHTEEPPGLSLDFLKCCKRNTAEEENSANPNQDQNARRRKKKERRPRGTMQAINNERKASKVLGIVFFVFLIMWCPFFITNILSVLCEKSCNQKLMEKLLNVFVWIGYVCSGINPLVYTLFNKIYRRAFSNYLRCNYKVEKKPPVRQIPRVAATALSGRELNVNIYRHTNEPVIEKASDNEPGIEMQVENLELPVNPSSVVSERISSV
Outline: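 Test compound affinity was derived from concentration-dependent displacement of fixed [3H]mesulergine at equilibrium, after subtracting nonspecific binding measured with a reference blocker. Bound and free radioligand were separated by filtration of tissue or plasma-membrane preparations.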

human H1 receptors = molecular target: T6, human H1 receptors (Homo sapiens, UniProt P35367); test: hH1 receptor radioligand binding ([3H]Pyrilamine); conditions: for Ki: pKi reported on a scale of 1 through 5; for binding to H1: in words
T6 construct: expressed in transfected cells; host or cells: Chinese hamster ovary cells (membranes)
T6 sequence (P35367 whole entry): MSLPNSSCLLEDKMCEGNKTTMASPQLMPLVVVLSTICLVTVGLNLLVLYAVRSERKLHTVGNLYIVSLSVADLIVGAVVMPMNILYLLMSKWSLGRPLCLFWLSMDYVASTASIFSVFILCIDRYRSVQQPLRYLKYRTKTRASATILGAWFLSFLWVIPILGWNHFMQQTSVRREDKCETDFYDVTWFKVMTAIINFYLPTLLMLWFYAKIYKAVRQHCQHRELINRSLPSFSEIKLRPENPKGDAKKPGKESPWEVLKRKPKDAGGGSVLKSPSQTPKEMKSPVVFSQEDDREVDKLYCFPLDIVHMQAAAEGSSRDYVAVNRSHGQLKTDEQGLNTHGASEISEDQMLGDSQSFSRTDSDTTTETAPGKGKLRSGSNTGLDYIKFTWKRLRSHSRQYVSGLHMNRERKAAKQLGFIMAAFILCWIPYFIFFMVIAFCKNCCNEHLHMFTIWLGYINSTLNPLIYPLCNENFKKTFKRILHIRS
Outline: as §1

human M1 receptors = molecular target: T7, human M1 receptors (Homo sapiens, UniProt P11229); test: hM1 receptor radioligand binding ([3H]NMS); conditions: for Ki: pKi reported on a scale of 1 through 5; for affinity to M1 receptors: in words
T7 construct: expressed in transfected cells; host or cells: Chinese hamster ovary cells (membranes)
T7 sequence (P11229 1-460): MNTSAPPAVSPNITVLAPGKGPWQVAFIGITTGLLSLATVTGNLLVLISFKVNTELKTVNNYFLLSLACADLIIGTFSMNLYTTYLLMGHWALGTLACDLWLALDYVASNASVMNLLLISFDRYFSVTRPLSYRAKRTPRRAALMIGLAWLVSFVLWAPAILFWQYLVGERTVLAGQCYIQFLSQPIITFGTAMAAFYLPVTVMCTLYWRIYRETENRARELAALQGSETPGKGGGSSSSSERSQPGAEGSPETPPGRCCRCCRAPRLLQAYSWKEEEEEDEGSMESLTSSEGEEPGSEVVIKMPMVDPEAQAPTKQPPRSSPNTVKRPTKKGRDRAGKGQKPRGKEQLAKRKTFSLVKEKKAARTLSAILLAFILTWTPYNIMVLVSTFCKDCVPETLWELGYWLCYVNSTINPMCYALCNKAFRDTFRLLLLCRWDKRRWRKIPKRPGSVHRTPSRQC
Outline: as §1

[2] = read-out: 5HT2A (pKb) (converted)

| SMILES | Ki (human 5HT1A receptors) | Kb (5-HT2A receptor; [2]) | Ki (human M3 receptors) | Ki [1] | Ki (human 5HT2C receptors) | Ki (human H1 receptors) | Ki (human M1 receptors) | further results |
| --- | --- | --- | --- | --- | --- | --- | --- | --- |
| O=C(C[C@H]1CN(C2=Nc3cc(Cl)ccc3Oc3ccccc32)CCN1)OC1CCCC1 [DR, (S,E)-cyclopentyl 2-(4-(8-chlorodibenzo[b,f][1,4]oxazepin-11-yl)piperazin-2-yl)acetate] | 10 to 97.7 nM | 10 to 30.9 nM | > 10000 nM | 631 to 2450 nM | 10 to 97.7 nM | 1000 to 9770 nM | 1260 to 2450 nM |  |
| O=C(C[C@H]1CN(C2=Nc3cc(Cl)ccc3Oc3ccccc32)CCN1)O[C@H]1CCOC1 [EQ, (S)-tetrahydrofuran-3-yl 2-((S)-4-((E)-8-chlorodibenzo[b,f][1,4]oxazepin-11-yl)piperazin-2-yl)acetate] | 10 to 97.7 nM | 3.16 to 9.77 nM |  | 631 to 2450 nM |  | 10 to 97.7 nM | 5010 to 9770 nM |  |
| CN1CCN(C2=Nc3cc(Cl)ccc3Oc3ccccc32)C[C@@H]1CC(=O)NCC(F)(F)C(F)(F)F [EU, (S,E)-2-(4-(8-chlorodibenzo[b,f][1,4]oxazepin-11-yl)-1-methylpiperazin-2-yl)-N-(2,2,3,3,3-pentafluoropropyl)acetamide] | 1000 to 9770 nM |  |  | 2510 to 9770 nM |  | 100 to 977 nM | > 10000 nM | Kb (5-HT2A receptor; pKb reported on a scale of 1 through 5, read-out: 5HT2A (pKb) (converted)): > 100 nM |
| CCC(C)OC(=O)C[C@H]1CN(C2=Nc3cc(Cl)ccc3Oc3ccccc32)CCN1C (stereo partly drawn) [DY, sec-butyl 2-((S)-4-((E)-8-chlorodibenzo[b,f][1,4]oxazepin-11-yl)-1-methylpiperazin-2-yl)acetate] | 1000 to 9770 nM | 10 to 30.9 nM | > 10000 nM | 2510 to 9770 nM | 100 to 977 nM | 10 to 97.7 nM | > 10000 nM |  |
| O=C(C[C@H]1CN(C2=Nc3cc(Cl)ccc3Oc3ccccc32)CCN1)OC1CCOCC1 [DV, (S,E)-tetrahydro-2H-pyran-4-yl 2-(4-(8-chlorodibenzo[b,f][1,4]oxazepin-11-yl)piperazin-2-yl)acetate] | 10 to 97.7 nM | 3.16 to 9.77 nM | > 10000 nM | 631 to 2450 nM | 10 to 97.7 nM | 1000 to 9770 nM | > 10000 nM |  |
| O=C(O)C[C@H]1CN(C2=Nc3cc(Cl)ccc3Oc3ccccc32)CCN1 [Compound Q, (S,E)-2-(4-(8-chlorodibenzo[b,f][1,4]oxazepin-11-yl)piperazin-2-yl)acetic acid] | 100 to 977 nM | 10 to 30.9 nM | > 10000 nM | > 10000 nM | 100 to 977 nM | 100 to 977 nM | > 10000 nM | binding to 5-HT1A (human 5HT1A receptors): bind; affinity for the 5-HT2A receptors, fold lower than Compound K (5-HT2A receptor; relative to Compound K): 8 fold; affinity to M3 receptors (human M3 receptors): very low affinity; binds to D2S dopamine receptors ([1]; in words): not; binding to 5-HT2c (human 5HT2C receptors): bind; binding to H1 (human H1 receptors): bind; affinity to M1 receptors (human M1 receptors): very low affinity |
| CCOC(=O)CC1CN(C2=Nc3ccc(F)cc3Oc3ccccc32)CCN1 (stereo not shown) [J, (E)-ethyl 2-(4-(7-fluorodibenzo[b,f][1,4]oxazepin-11-yl)piperazin-2-yl)acetate] | 100 to 977 nM | 31.6 to 97.7 nM | > 10000 nM | 2510 to 9770 nM | 100 to 977 nM | 100 to 977 nM | > 10000 nM |  |
| CCOC(=O)CC1CN(C2=Nc3cc(Cl)ccc3Oc3ccccc32)CCN1 (stereo not shown) [A, (E)-ethyl 2-(4-(8-chlorodibenzo[b,f][1,4]oxazepin-11-yl)piperazin-2-yl)acetate] | 100 to 977 nM | 10 to 30.9 nM | > 10000 nM | 2510 to 9770 nM | 10 to 97.7 nM | 100 to 977 nM | 5010 to 9770 nM |  |
| CC(C)OC(=O)CC1CN(C2=Nc3cc(Cl)ccc3Oc3ccccc32)CCN1 (stereo not shown) [L, (E)-isopropyl 2-(4-(8-chlorodibenzo[b,f][1,4]oxazepin-11-yl)piperazin-2-yl)acetate] | 100 to 977 nM | 10 to 30.9 nM | > 10000 nM | 2510 to 9770 nM | 10 to 97.7 nM | 100 to 977 nM | > 10000 nM |  |
| CC(C)OC(=O)CC1CN(C2=Nc3ccc(F)cc3Oc3ccccc32)CCN1 (stereo not shown) [M, (E)-isopropyl 2-(4-(7-fluorodibenzo[b,f][1,4]oxazepin-11-yl)piperazin-2-yl)acetate] | 100 to 977 nM | 10 to 30.9 nM | > 10000 nM | > 10000 nM | 100 to 977 nM | 1000 to 9770 nM | > 10000 nM |  |
| CCOC(=O)C[C@H]1CN(C2=Nc3cc(Cl)ccc3Oc3ccccc32)CCN1CCC(C)C [ER, (S,E)-ethyl 2-(4-(8-chlorodibenzo[b,f][1,4]oxazepin-11-yl)-1-isopentylpiperazin-2-yl)acetate] | 1000 to 9770 nM | 31.6 to 97.7 nM |  | 2510 to 9770 nM |  | 100 to 977 nM | > 10000 nM |  |
| CCOC(=O)C[C@H]1CN(C2=Nc3cc(Cl)ccc3Oc3ccccc32)CCN1 [Compound K, (S,E)-ethyl 2-(4-(8-chlorodibenzo[b,f][1,4]oxazepin-11-yl)piperazin-2-yl)acetate] | 100 to 977 nM | 3.16 to 9.77 nM | > 10000 nM | 631 to 2450 nM | 10 to 97.7 nM | 100 to 977 nM | > 10000 nM | binding to 5-HT1A (human 5HT1A receptors): bind; affinity for the 5-HT1A receptors, fold higher than clozapine (human 5HT1A receptors; relative to clozapine): 4 fold; Kb (5-HT2A receptor; rat aorta, Schild plot vs 5-HT, read-out: pA2, antagonist for 5-HT2A receptors (converted)): 3.16 nM; affinity to M3 receptors (human M3 receptors): very low affinity; IC50 binding affinity for D2S receptors ([1]; in words): low micromolar; binds to D2S dopamine receptors ([1]; in words): Binds; affinity for the D2S receptor compared with clozapine ([1]; relative to clozapine, in words): comparable; binding to 5-HT2c (human 5HT2C receptors): bind; affinity for the 5-HT2c receptors, fold lower than clozapine (human 5HT2C receptors; relative to clozapine): 1.2 fold; binding to H1 (human H1 receptors): bind; affinity for the H1 receptors, fold lower than clozapine (human H1 receptors; relative to clozapine): 69 fold; affinity to M1 receptors (human M1 receptors): very low affinity |

Source: patent US20120178738A1, “DIBENZO [B,F] [1,4]OXAZAPINE COMPOUNDS” (ARYX THERAPEUTICS, INC., priority 2007, published 2012)
